The values below come from patent US11180474B2 (BRISTOL-MYERS SQUIBB COMPANY, priority 2016, dated 2021).

Test [1] deals with T1, human TLR9 (Homo sapiens, UniProt Q9NR96).
T1 construct: host or cells: HEK-Blue cells
T1 sequence (Q9NR96 26-1032): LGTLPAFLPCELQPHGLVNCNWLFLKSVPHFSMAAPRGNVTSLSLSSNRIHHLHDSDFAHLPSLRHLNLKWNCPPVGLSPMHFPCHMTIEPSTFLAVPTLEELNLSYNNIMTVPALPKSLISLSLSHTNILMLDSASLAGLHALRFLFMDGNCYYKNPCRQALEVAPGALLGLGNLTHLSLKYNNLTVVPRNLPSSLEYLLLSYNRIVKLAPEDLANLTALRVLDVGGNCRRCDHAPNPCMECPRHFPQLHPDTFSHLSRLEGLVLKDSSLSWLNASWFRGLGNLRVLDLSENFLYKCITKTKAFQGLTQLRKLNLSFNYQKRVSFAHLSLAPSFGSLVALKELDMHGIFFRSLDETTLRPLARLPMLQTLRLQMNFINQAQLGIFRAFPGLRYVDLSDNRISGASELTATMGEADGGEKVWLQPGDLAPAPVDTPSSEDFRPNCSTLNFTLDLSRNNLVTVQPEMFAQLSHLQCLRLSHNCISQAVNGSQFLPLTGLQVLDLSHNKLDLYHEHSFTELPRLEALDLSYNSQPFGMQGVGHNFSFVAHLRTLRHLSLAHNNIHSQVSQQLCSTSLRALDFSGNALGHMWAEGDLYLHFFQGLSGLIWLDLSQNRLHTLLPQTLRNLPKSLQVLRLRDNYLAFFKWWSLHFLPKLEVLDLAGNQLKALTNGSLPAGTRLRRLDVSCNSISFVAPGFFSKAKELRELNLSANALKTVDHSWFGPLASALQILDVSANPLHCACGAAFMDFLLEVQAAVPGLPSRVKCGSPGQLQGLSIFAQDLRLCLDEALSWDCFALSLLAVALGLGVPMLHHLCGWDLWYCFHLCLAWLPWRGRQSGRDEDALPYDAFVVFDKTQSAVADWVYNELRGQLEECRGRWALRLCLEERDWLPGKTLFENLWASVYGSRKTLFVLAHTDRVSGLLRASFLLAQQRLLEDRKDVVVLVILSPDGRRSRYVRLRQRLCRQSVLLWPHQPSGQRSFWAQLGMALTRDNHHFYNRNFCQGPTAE
The test is described as follows: TLR9 inhibition reporter assay (HEK-Blue cells, SEAP reporter, ODN2006 stimulation). The test is classed as cell-based. The following applies: HEK-Blue cells overexpressing human TLR9, ODN2006 5 nM. The procedure, abridged: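 Human TLR7/8/9 HEK-Blue reporter lines; dose range 0.05 nM–50 μM; 30 min RT preincubation; stimulus gardiquimod 7.5 μM / R848 15.9 μM / ODN2006 5 nM respectively; 22 h, 37 °C; SEAP detected colorimetrically.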

Test [2] addresses T2, human TLR7 (Homo sapiens, UniProt Q9NYK1).
T2 construct: host or cells: HEK-Blue cells
T2 sequence (Q9NYK1 27-1049): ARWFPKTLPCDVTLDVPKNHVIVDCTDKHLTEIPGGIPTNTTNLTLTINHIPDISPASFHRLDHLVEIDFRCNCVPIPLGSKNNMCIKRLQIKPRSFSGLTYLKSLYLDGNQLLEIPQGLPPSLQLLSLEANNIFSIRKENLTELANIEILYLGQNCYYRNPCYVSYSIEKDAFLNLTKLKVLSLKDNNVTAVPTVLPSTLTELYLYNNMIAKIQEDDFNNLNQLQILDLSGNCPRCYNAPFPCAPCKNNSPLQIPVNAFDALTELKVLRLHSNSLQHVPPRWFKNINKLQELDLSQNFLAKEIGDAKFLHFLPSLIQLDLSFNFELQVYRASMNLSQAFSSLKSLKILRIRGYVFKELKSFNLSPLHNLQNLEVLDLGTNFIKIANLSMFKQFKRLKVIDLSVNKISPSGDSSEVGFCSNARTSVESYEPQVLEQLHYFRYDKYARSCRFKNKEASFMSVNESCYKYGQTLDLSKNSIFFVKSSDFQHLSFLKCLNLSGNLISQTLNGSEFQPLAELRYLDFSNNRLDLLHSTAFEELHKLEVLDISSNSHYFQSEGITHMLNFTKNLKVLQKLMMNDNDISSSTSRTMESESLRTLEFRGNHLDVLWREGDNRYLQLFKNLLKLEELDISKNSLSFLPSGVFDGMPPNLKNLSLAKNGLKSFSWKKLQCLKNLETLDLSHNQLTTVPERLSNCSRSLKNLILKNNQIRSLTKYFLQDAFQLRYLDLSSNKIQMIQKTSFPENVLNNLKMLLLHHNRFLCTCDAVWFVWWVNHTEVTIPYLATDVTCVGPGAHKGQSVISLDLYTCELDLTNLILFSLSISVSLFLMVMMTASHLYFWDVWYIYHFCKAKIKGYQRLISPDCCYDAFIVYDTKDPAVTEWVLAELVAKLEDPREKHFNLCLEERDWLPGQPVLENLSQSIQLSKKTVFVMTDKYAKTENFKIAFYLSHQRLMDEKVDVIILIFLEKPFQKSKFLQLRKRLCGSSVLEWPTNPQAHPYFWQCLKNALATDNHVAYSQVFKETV
The test is described as follows: TLR7 inhibition reporter assay (HEK-Blue cells, SEAP reporter, gardiquimod stimulation). The test is classed as cell-based. The following applies: HEK-Blue cells overexpressing human TLR7, gardiquimod 7.5 μM. The procedure, abridged: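 Cells (15000/well for TLR7, 20,000 for TLR8) were treated with compounds over 0.05 nM-50 μM final. After 22 h at 37° C, 5% CO2, SEAP was measured with HEK-Blue Detection reagent; percent inhibition was taken as reduction of agonist-plus-DMSO signal relative to a known inhibitor.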
Background: A reporter such as luciferase makes a cellular process visible.

By IC50 is commonly meant the concentration that gives 50% inhibition. A low value points to inhibition by little substance.

Bounds are passed on as bounds.

As to `COc1ccc(-c2[nH]c3ccc(C4CCN(C(=O)CN5CCCC(C(=O)NC6CCN(C(C)C)CC6)C5)CC4)cc3c2C(C)C)cc1OC` (single isomer, unassigned) [Example 280, 1-(2-(4-(2-(3,4-dimethoxyphenyl)-3-isopropyl-1H-indol-5-yl)piperidin-1-yl)-2-oxoethyl)-N-(1-isopropylpiperidin-4-yl)piperidine-3-carboxamide], the IC50 in test [1] worked out at 417 nM; in test [2] it was 26 nM.
The corresponding values for `COc1ccc(-c2[nH]c3ccc(C4CCN(C(=O)CN5CCCC(C(=O)NC6CCN(C(C)C)CC6)C5)CC4)cc3c2C(C)C)cc1OC` (single isomer, unassigned) [Example 281, 1-(2-(4-(2-(3,4-dimethoxyphenyl)-3-isopropyl-1H-indol-5-yl)piperidin-1-yl)-2-oxoethyl)-N-(1-isopropylpiperidin-4-yl)piperidine-3-carboxamide] are 586 nM and 17 nM.
The corresponding values for `COc1ccc(-c2[nH]c3ccc(C4CCNCC4O)cc3c2C(C)C)cc1OC` (single isomer, unassigned) [Example 317, 4-(2-(3,4-dimethoxyphenyl)-3-isopropyl-1H-indol-5-yl)piperidin-3-ol 2,2,2-trifluoroacetate] are 4720 nM and 38 nM.
For the compound `COc1ccc(-c2[nH]c3ccc(C4CCNCC4O)cc3c2C(C)C)cc1OC` (single isomer, unassigned) [Example 318, 4-(2-(3,4-dimethoxyphenyl)-3-isopropyl-1H-indol-5-yl)piperidin-3-ol 2,2,2-trifluoroacetate], the IC50 in test [1] was found to be 11200 nM; in test [2] it was 3280 nM.
In the same order, the values of `COc1ccc(-c2[nH]c3ccc(C4CCN(C5C[C@H]6CC[C@@H](C5)N6C)CC4)cc3c2C)cc1OC` (stereo partly drawn) [Example 21, 2-(3,4-dimethoxyphenyl)-3-methyl-5-(1-((1R,5S)-8-methyl-8-azabicyclo[3.2.1]octan-3-yl)piperidin-4-yl)-1H-indole] are 83 nM and 72 nM.
The corresponding values for `COc1ccc(-c2[nH]c3ccc(C4CCN(C5CCN(C6CC6)CC5)CC4)cc3c2C)cc1OC` [Example 23, 5-(1′-cyclopropyl-[1,4′-bipiperidin]-4-yl)-2-(3,4-dimethoxyphenyl)-3-methyl-1H-indole] are 154 nM and 101 nM.
In the same order, the values of `COc1ccc(-c2[nH]c3ccc(C4CCN(C(=O)CN5CCCN(C(C)=O)CC5)CC4)cc3c2C(C)C)cc1OC` [Example 222, 2-(4-acetyl-1,4-diazepan-1-yl)-1-(4-(2-(3,4-dimethoxyphenyl)-3-isopropyl-1H-indol-5-yl)piperidin-1-yl)ethan-1-one] are 6880 nM and 45 nM.
As for `COc1ccc(-c2[nH]c3ccc(C4CCN(C(=O)CN5CCOCC5)CC4)cc3c2C(C)C)cc1OC` [Example 223, 1-(4-(2-(3,4-dimethoxyphenyl)-3-isopropyl-1H-indol-5-yl)piperidin-1-yl)-2-morpholinoethan-1-one], the IC50 in test [1] is at least 50000 nM; in test [2], 48 nM.
As to `CCN(CC)C(=O)C1CCCN(CC(=O)N2CCC(c3ccc4[nH]c(-c5ccc(OC)c(OC)c5)c(C(C)C)c4c3)CC2)C1` (stereo not shown) [Example 224, 1-(2-(4-(2-(3,4-dimethoxyphenyl)-3-isopropyl-1H-indol-5-yl)piperidin-1-yl)-2-oxoethyl)-N,N-diethylpiperidine-3-carboxamide], the IC50 is 403 nM in test [1] and 46 nM in test [2].
As to `COc1ccc(-c2[nH]c3ccc(C4CCN(C(=O)CN5CCCC(CO)C5)CC4)cc3c2C(C)C)cc1OC` (stereo not shown) [Example 226, 1-(4-(2-(3,4-dimethoxyphenyl)-3-isopropyl-1H-indol-5-yl)piperidin-1-yl)-2-(3-(hydroxymethyl)piperidin-1-yl)ethan-1-one], the results for the IC50 in test [1] and in test [2] were 1420 nM and 16 nM, respectively.
As to `COc1ccc(-c2[nH]c3ccc(C4CCN(C(=O)CN(C)C(C)C)CC4)cc3c2C(C)C)cc1OC` [Example 227, 1-(4-(2-(3,4-dimethoxyphenyl)-3-isopropyl-1H-indol-5-yl)piperidin-1-yl)-2-(isopropyl(methyl)amino) ethan-1-one], the values for the IC50 in test [1] and in test [2] were 1730 nM and 29 nM, respectively.
For `COc1ccc(-c2[nH]c3ccc(C4CCN(C(=O)CNCC(N)=O)CC4)cc3c2C(C)C)cc1OC` [Example 228, 2-((2-(4-(2-(3,4-dimethoxyphenyl)-3-isopropyl-1H-indol-5-yl)piperidin-1-yl)-2-oxoethyl)amino)acetamide], the IC50 in test [1] is 15100 nM; in test [2], 46 nM.
In the same order, the values of `COc1ccc(-c2[nH]c3ccc(C4CCN(C(=O)CN5CCN(CC(=O)NC(C)C)CC5)CC4)cc3c2C(C)C)cc1OC` [Example 229, 2-(4-(2-(4-(2-(3,4-dimethoxyphenyl)-3-isopropyl-1H-indol-5-yl)piperidin-1-yl)-2-oxoethyl)piperazin-1-yl)-N-isopropylacetamide] are 4980 nM and 25 nM.
`COc1ccc(-c2[nH]c3ccc(C4CCN(C(=O)CNCCOCCO)CC4)cc3c2C(C)C)cc1OC` [Example 230, 1-(4-(2-(3,4-dimethoxyphenyl)-3-isopropyl-1H-indol-5-yl)piperidin-1-yl)-2-((2-(2-hydroxyethoxy)ethyl)amino)ethan-1-one]: the IC50 in test [1] was found to be 2200 nM; in test [2], 19 nM.
For the compound `COc1ccc(-c2[nH]c3ccc(C4CCN(C(=O)CN[C@H](CO)CC(C)C)CC4)cc3c2C(C)C)cc1OC` [Example 231, (S)-1-(4-(2-(3,4-dimethoxyphenyl)-3-isopropyl-1H-indol-5-yl)piperidin-1-yl)-2-((1-hydroxy-4-methylpentan-2-yl)amino)ethan-1-one], the IC50 was 1930 nM in test [1] and 96 nM in test [2].
The corresponding values for `COc1ccc(-c2[nH]c3ccc(C4CCN(C(=O)CN[C@H]5CC[C@H](N)CC5)CC4)cc3c2C(C)C)cc1OC` [Example 232, 2-(((1r,4r)-4-aminocyclohexyl)amino)-1-(4-(2-(3,4-dimethoxyphenyl)-3-isopropyl-1H-indol-5-yl)piperidin-1-yl)ethan-1-one] are 307 nM and 120 nM.
In the same order, the values of `CCC(CO)NCC(=O)N1CCC(c2ccc3[nH]c(-c4ccc(OC)c(OC)c4)c(C(C)C)c3c2)CC1` (stereo not shown) [Example 233, 1-(4-(2-(3,4-dimethoxyphenyl)-3-isopropyl-1H-indol-5-yl)piperidin-1-yl)-2-((1-hydroxybutan-2-yl)amino)ethan-1-one] are 877 nM and 23 nM.
